From publication PMC7024302, “Ultrashort Cationic Lipopeptides–Effect of N-Terminal Amino Acid and Fatty Acid Type on Antimicrobial Activity and Hemolysis” (Molecules, 2020)
Converted amounts (≈) assume the structure as drawn. Residues, ends and D or L forms follow the SMILES beside them.

Experiments:
P. aeruginosa ATCC 9027 = type: cell-based, Pseudomonas aeruginosa; details: ATCC 9027, 18 h
Procedure, shortened: (§1)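 MIC = lowest lipopeptide concentration with no noticeable growth. Inocula of 5 × 10^5 CFU/mL in MHB, 0.5–256 µg/mL range, 37 °C, 18 h, CLSI microdilution, triplicate.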

[1] = test system: S. aureus ATCC 33591 (MRSA); type: cell-based, Staphylococcus aureus; details: ATCC 33591, 18 h
Procedure, shortened: as §1

S. aureus ATCC 25923 = type: cell-based, Staphylococcus aureus; details: ATCC 25923, 18 h
Procedure, shortened: as §1

E. faecium ATCC 700221 = type: cell-based, Enterococcus faecium; details: ATCC 700221, 18 h
Procedure, shortened: as §1

[2] = Determination of peptide hydrophobicity with RP-HPLC (adjusted retention time); type: physicochemical; details: RP-HPLC C18, linear 10–55% acetonitrile over 60 min, 0.1% TFA, 25.0 °C, UV 214 nm, triplicate; for tR’: Table 3, adjusted retention time as hydrophobicity
Procedure, shortened: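 Peptides at 1 g/L in water with 0.1% TFA run on a C18 column (3.0 × 100 mm, 5 µm). Elution with a linear 10–55% acetonitrile gradient over 60 min, 0.1% TFA in both eluents, 0.5 mL/min, 25.0 ± 0.1 °C. Detection at 214 nm, in triplicate.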

[3] = test system: human red blood cells (hRBCs); type: cell-based; details: red cells of human, 1 h
Procedure, shortened: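 Fresh EDTA-anticoagulated human RBCs, PBS-washed, at 4% (v/v) final were exposed to lipopeptides at 0.5–256 µg/mL for 1 h at 37 °C. Released haemoglobin in supernatant read at 540 nm; PBS as 0% and 1% Triton X-100 as 100% haemolysis. Triplicates.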

[4] = test system: K. pneumoniae ATCC 700603; type: cell-based, Klebsiella pneumoniae; details: ATCC 700603, 18 h
Procedure, shortened: as §1

K. aerogenes ATCC 13048 = type: cell-based, Klebsiella aerogenes; details: ATCC 13048, 18 h
Procedure, shortened: as §1

[5] = test system: A. baumannii ATCC BAA-1605; type: cell-based, Acinetobacter baumannii; details: ATCC BAA-1605, 18 h
Procedure, shortened: as §1

C. albicans ATCC 10231 = type: cell-based, Candida albicans; details: ATCC 10231, 24 h, pH 7

SMILES | MIC PA (P. aeruginosa ATCC 9027) [µg/mL] | MIC S [1] | MIC SA (S. aureus ATCC 25923) | MIC E1 (E. faecium ATCC 700221) | Adjusted retention time ([2]; Table 2, nC = carbon atoms in fatty acid chain) [min] | HC50 [3] | MIC K [4] | MIC E2 (K. aerogenes ATCC 13048) | MIC A [5] [µg/mL] | MIC CA (C. albicans ATCC 10231) [µg/mL] | tR’ [2] [min]
CCCCCCCCCCCCCC(=O)N[C@@H](CCCC)C(=O)N[C@@H](CCCNC(=N)N)C(=O)N[C@@H](CCCNC(=N)N)C(N)=O [compound 66, C14-NleRR-NH2] (HELM PEPTIDE1{[CCCCCCCCCCCCCC(=O)[*:2]].[Nle].R.R.[am]}$$$$V2.0) | 4 (≈ 6.13 µM) | 8 µg/mL (≈ 12.3 µM) | 4 µg/mL (≈ 6.13 µM) | 8 µg/mL (≈ 12.3 µM) | 46.681 | 37.54 (±1.39) µg/mL | 32 µg/mL (≈ 49 µM) | 32 µg/mL (≈ 49 µM) | 64 (≈ 98 µM) | 4 (≈ 6.13 µM) | –
CCCCCCCCCCCC(=O)N[C@@H](CCC)C(=O)N[C@@H](CCCNC(=N)N)C(=O)N[C@@H](CCCNC(=N)N)C(N)=O [compound 69, C12-NvaRR-NH2] (HELM PEPTIDE1{[CCCCCCCCCCCC(=O)[*:2]].[Nva].R.R.[am]}$$$$V2.0) | 32 (≈ 52.4 µM) | 16 µg/mL (≈ 26.2 µM) | 8 µg/mL (≈ 13.1 µM) | 16 µg/mL (≈ 26.2 µM) | – | 207.62 (±5.27) µg/mL | 256 µg/mL (≈ 419 µM) | 256 µg/mL (≈ 419 µM) | 64 (≈ 105 µM) | 32 (≈ 52.4 µM) | 37.67
CCCCCCCCCCCCCC(=O)N[C@@H](CCC)C(=O)N[C@@H](CCCNC(=N)N)C(=O)N[C@@H](CCCNC(=N)N)C(N)=O [compound 70, C14-NvaRR-NH2] (HELM PEPTIDE1{[CCCCCCCCCCCCCC(=O)[*:2]].[Nva].R.R.[am]}$$$$V2.0) | 8 (≈ 12.5 µM) | 4 µg/mL (≈ 6.26 µM) | 4 µg/mL (≈ 6.26 µM) | 4 µg/mL (≈ 6.26 µM) | – | 42.04 (±1.38) µg/mL | 128 µg/mL (≈ 200 µM) | 128 µg/mL (≈ 200 µM) | 64 (≈ 100 µM) | 4 (≈ 6.26 µM) | 44.53
CCCCCCCCCCCCCC(=O)N1CCC[C@H]1C(=O)N[C@@H](CCCNC(=N)N)C(=O)N[C@@H](CCCNC(=N)N)C(N)=O [compound 74, C14-PRR-NH2] | 16 (≈ 25.1 µM) | 8 µg/mL (≈ 12.6 µM) | 16 µg/mL (≈ 25.1 µM) | 8 µg/mL (≈ 12.6 µM) | – | 53.41 (±1.84) µg/mL | 256 µg/mL (≈ 402 µM) | 256 µg/mL (≈ 402 µM) | 64 (≈ 100 µM) | 8 (≈ 12.6 µM) | 42.61
CCCCCCCCCCCCCC(=O)N[C@@H](CCC(N)=O)C(=O)N[C@@H](CCCNC(=N)N)C(=O)N[C@@H](CCCNC(=N)N)C(N)=O [compound 78, C14-QRR-NH2] (HELM PEPTIDE1{[CCCCCCCCCCCCCC(=O)[*:2]].Q.R.R.[am]}$$$$V2.0) | 32 (≈ 47.9 µM) | 16 µg/mL (≈ 24 µM) | 16 µg/mL (≈ 24 µM) | 16 µg/mL (≈ 24 µM) | – | 72.31 (±3.00) µg/mL | 256 µg/mL (≈ 383 µM) | 256 µg/mL (≈ 383 µM) | 64 (≈ 95.8 µM) | 32 (≈ 47.9 µM) | 38.52
CCCCCCCCCCCC(=O)N[C@@H](CCCNC(=N)N)C(=O)N[C@@H](CCCNC(=N)N)C(=O)N[C@@H](CCCNC(=N)N)C(N)=O [compound 81, C12-RRR-NH2] (HELM PEPTIDE1{[CCCCCCCCCCCC(=O)[*:2]].R.R.R.[am]}$$$$V2.0) | 128 (≈ 192 µM) | 32 µg/mL (≈ 47.9 µM) | 16 (>16) µg/mL | 16 (>16) µg/mL | – | >256 µg/mL | >256 (-) µg/mL | >256 (-) µg/mL | 256 (≈ 383 µM) | 128 (≈ 192 µM) | 30.00
CCCCCCCCCCCCCC(=O)N[C@@H](CCCNC(=N)N)C(=O)N[C@@H](CCCNC(=N)N)C(=O)N[C@@H](CCCNC(=N)N)C(N)=O [compound 82, C14-RRR-NH2] (HELM PEPTIDE1{[CCCCCCCCCCCCCC(=O)[*:2]].R.R.R.[am]}$$$$V2.0) | 32 (≈ 46 µM) | 8 µg/mL (≈ 11.5 µM) | 4 µg/mL (≈ 5.75 µM) | 8 µg/mL (≈ 11.5 µM) | – | 211.32 (±9.57) µg/mL | 128 µg/mL (≈ 184 µM) | 128 µg/mL (≈ 184 µM) | 128 (≈ 184 µM) | 16 (≈ 23 µM) | 36.76
CCCCCCCCCCCCCC(=O)N[C@@H](CO)C(=O)N[C@@H](CCCNC(=N)N)C(=O)N[C@@H](CCCNC(=N)N)C(N)=O [compound 86, C14-SRR-NH2] (HELM PEPTIDE1{[CCCCCCCCCCCCCC(=O)[*:2]].S.R.R.[am]}$$$$V2.0) | 32 (≈ 51 µM) | 16 µg/mL (≈ 25.5 µM) | 16 µg/mL (≈ 25.5 µM) | 16 µg/mL (≈ 25.5 µM) | – | 41.54 (±1.29) µg/mL | 128 µg/mL (≈ 204 µM) | 128 µg/mL (≈ 204 µM) | 32 (≈ 51 µM) | 32 (≈ 51 µM) | 39.72
CCCCCCCCCCCCCC(=O)N[C@H](C(=O)N[C@@H](CCCNC(=N)N)C(=O)N[C@@H](CCCNC(=N)N)C(N)=O)[C@@H](C)O [compound 90, C14-TRR-NH2] (HELM PEPTIDE1{[CCCCCCCCCCCCCC(=O)[*:2]].T.R.R.[am]}$$$$V2.0) | 32 (≈ 49.9 µM) | 8 µg/mL (≈ 12.5 µM) | 8 µg/mL (≈ 12.5 µM) | 8 µg/mL (≈ 12.5 µM) | – | 43.43 (±0.90) µg/mL | 128 µg/mL (≈ 200 µM) | 128 µg/mL (≈ 200 µM) | 64 (≈ 99.9 µM) | 8 (≈ 12.5 µM) | 40.80
CCCCCCCCCCCC(=O)N[C@H](C(=O)N[C@@H](CCCNC(=N)N)C(=O)N[C@@H](CCCNC(=N)N)C(N)=O)C(C)C [compound 93, C12-VRR-NH2] (HELM PEPTIDE1{[CCCCCCCCCCCC(=O)[*:2]].V.R.R.[am]}$$$$V2.0) | 32 (≈ 52.4 µM) | 16 µg/mL (≈ 26.2 µM) | 16 µg/mL (≈ 26.2 µM) | 16 µg/mL (≈ 26.2 µM) | – | 246.30 (±14.12) µg/mL | >256 (-) µg/mL | 256 µg/mL (≈ 419 µM) | 128 (≈ 210 µM) | 32 (≈ 52.4 µM) | 37.17
CCCCCCCCCCCCCC(=O)N[C@H](C(=O)N[C@@H](CCCNC(=N)N)C(=O)N[C@@H](CCCNC(=N)N)C(N)=O)C(C)C [compound 94, C14-VRR-NH2] (HELM PEPTIDE1{[CCCCCCCCCCCCCC(=O)[*:2]].V.R.R.[am]}$$$$V2.0) | 8 (≈ 12.5 µM) | 4 µg/mL (≈ 6.26 µM) | 4 µg/mL (≈ 6.26 µM) | 16 µg/mL (≈ 25 µM) | – | 30.73 (±0.41) µg/mL | 128 µg/mL (≈ 200 µM) | 128 µg/mL (≈ 200 µM) | 32 (≈ 50.1 µM) | 8 (≈ 12.5 µM) | 44.02
CCCCCCCCCC(=O)N[C@@H](Cc1c[nH]c2ccccc12)C(=O)N[C@@H](CCCNC(=N)N)C(=O)N[C@@H](CCCNC(=N)N)C(N)=O [compound 96, C10-WRR-NH2] (HELM PEPTIDE1{[CCCCCCCCCC(=O)[*:2]].W.R.R.[am]}$$$$V2.0) | 32 (≈ 47.8 µM) | 16 (>16) µg/mL | 16 (>16) µg/mL | 16 (>16) µg/mL | – | >256 µg/mL | >256 (-) µg/mL | >256 (-) µg/mL | 64 (≈ 95.5 µM) | 32 (≈ 47.8 µM) | 34.31
